# Experimental data from ChEMBL document CHEMBL2010674, “Structure based design of iminohydantoin BACE1 inhibitors: identification of an orally available, centrally active BACE1 inhibitor” (Bioorg Med Chem Lett, 2012).
# Columns and labels:
# [1] = biological target: T1, Beta-secretase 1 (Homo sapiens, UniProt P56817)
# [2] = biological target: T1, Beta-secretase 1; remark: listed apart in the source
# Description: Inhibition of BACE1 in HEK293 cells expressing APP swedish and london mutant assessed as decrease of amyloid-beta40 level after 4 hrs by electrochemiluminescence-based sandwich ELISA
# [3] = biological target: T2, Beta-secretase 2 (Homo sapiens, UniProt Q9Y5Z0)
# T2 sequence (Q9Y5Z0 whole entry): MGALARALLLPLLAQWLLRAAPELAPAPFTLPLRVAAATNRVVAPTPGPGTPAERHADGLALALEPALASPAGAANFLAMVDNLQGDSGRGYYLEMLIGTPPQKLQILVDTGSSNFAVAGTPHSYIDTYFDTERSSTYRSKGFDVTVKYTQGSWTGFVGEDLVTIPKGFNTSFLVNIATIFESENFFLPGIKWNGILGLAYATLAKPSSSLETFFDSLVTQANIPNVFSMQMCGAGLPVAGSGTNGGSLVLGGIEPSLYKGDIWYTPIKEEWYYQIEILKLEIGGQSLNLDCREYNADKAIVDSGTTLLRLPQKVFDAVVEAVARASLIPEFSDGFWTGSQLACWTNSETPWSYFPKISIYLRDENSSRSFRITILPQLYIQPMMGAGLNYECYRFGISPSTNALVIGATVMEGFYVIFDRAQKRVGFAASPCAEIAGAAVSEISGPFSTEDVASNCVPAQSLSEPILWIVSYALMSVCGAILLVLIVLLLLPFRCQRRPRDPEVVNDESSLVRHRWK
# [4] = AUC (0 to 6 hrs) in rat at 10 mg/kg, po; format: ADME, organism-based; design: time < 6 hr, dose 10 mg/kg, route oral; conditions: plasma
# [5] = test system: Rattus norvegicus; experiment: Antialzheimer activity in Sprague-Dawley rat assessed as reduction in amyloid beta40 level in CSF at 30 mg/kg, po after 3 hrs relative to vehicle treated control; format: functional; design: scale not given: the % may be the effect or the level left
# [6] = test system: Rattus norvegicus; experiment: Antialzheimer activity in Sprague-Dawley rat assessed as reduction in amyloid beta40 level in plasma at 30 mg/kg, po after 3 hrs relative to vehicle treated control; format: functional; design: scale not given: the % may be the effect or the level left
# [7] = test system: Plasma; experiment: Plasma concentration in Sprague-Dawley rat at 30 mg/kg, po; format: ADME, organism-based; design: dose 30 mg/kg, route oral; conditions: in vivo
# [8] = Ratio of drug level in brain to plasma in Sprague-Dawley rat at 30 mg/kg, po; format: ADME, organism-based; design: dose 30 mg/kg, route oral; conditions: read-out: BPR
# [9] = Ratio of drug level in brain to plasma in rat at 10 mg/kg, po; format: ADME, organism-based; design: dose 10 mg/kg, route oral; conditions: read-out: BPR
# T1 sequence (P56817 whole entry): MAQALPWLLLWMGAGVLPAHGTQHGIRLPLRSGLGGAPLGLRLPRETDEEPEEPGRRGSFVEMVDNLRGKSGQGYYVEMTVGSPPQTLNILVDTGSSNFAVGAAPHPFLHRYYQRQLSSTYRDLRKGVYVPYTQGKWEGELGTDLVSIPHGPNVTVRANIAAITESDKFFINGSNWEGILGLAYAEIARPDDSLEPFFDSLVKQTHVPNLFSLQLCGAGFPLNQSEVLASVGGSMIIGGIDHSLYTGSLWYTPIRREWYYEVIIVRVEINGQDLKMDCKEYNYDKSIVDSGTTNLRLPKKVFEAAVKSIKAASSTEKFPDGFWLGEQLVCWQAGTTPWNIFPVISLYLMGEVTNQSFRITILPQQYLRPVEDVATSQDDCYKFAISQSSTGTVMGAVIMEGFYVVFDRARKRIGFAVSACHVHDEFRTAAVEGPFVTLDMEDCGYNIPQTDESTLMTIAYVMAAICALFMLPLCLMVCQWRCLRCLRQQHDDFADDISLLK
SMILES,Ki [1] [µM],IC50 [2] [µM],further results
Cc1cncc(-c2cccc(C3(C4CC4)NC(=N)N(C)C3=O)c2)c1 (configuration not stated),0.25,0.64,Ki [3]: 0.068 µM
CN1C(=N)N[C@@](c2cccc(-c3cncc(Cl)c3)c2)(C2CC2)C1=O,–,–,AUC(0-t) at 6 h [4]: 3.1 µM·h
CN1C(=N)NC(C)(c2cccc(-c3cccc(Cl)c3)c2)C1=O (configuration not stated),0.72,4.8,–
CCC1(c2cccc(-c3cccc(Cl)c3)c2)NC(=N)N(C)C1=O (configuration not stated),0.45,5.3,–
CC(C)C1(c2cccc(-c3cccc(Cl)c3)c2)NC(=N)N(C)C1=O (configuration not stated),0.32,4.6,–
CN1C(=N)NC(c2cccc(-c3cccc(Cl)c3)c2)(C2CC2)C1=O (configuration not stated),0.047,1.9,–
CN1C(=N)NC(c2cccc(-c3cccc(Cl)c3)c2)(C2CCC2)C1=O (configuration not stated),0.11,2.8,–
CN1C(=N)NC(c2cccc(-c3cccc(Cl)c3)c2)(C2CCCC2)C1=O (configuration not stated),0.47,6.9,–
CN1C(=N)NC(c2cccc(-c3cccc(Cl)c3)c2)(c2ccccn2)C1=O (configuration not stated),0.86,5.9,–
CN1C(=N)NC(c2cccnc2)(c2cccc(-c3cccc(Cl)c3)c2)C1=O (configuration not stated),0.17,4.4,–
CN1C(=N)NC(c2ccncc2)(c2cccc(-c3cccc(Cl)c3)c2)C1=O (configuration not stated),> 10,–,–
CN1C(=N)NC(c2cncnc2)(c2cccc(-c3cccc(Cl)c3)c2)C1=O (configuration not stated),0.83,21,–
CN1C(=N)NC(c2cccc(-c3cc(Cl)cc(Cl)c3)c2)(C2CC2)C1=O (configuration not stated),0.03,2.4,–
COc1cccc(-c2cccc(C3(C4CC4)NC(=N)N(C)C3=O)c2)c1 (configuration not stated),–,–,Ki [3]: 0.0078 µM
CN1C(=N)NC(c2cccc(-c3cccc(C#N)c3)c2)(C2CC2)C1=O (configuration not stated),0.13,0.94,Ki [3]: 0.03 µM
CN1C(=N)NC(c2cccc(-c3cccnc3)c2)(C2CC2)C1=O (configuration not stated),0.27,0.88,Ki [3]: 0.36 µM
COc1cncc(-c2cccc(C3(C4CC4)NC(=N)N(C)C3=O)c2)c1 (configuration not stated),0.1,0.39,Ki [3]: 0.011 µM

SMILES,Ki [1] [µM],IC50 [2] [µM],further results
CN1C(=N)NC(c2cccc(-c3cncc(C#N)c3)c2)(C2CC2)C1=O (configuration not stated),0.27,0.61,Ki [3]: 0.17 µM
CN1C(=N)NC(c2cccc(-c3cncc(F)c3)c2)(C2CC2)C1=O (configuration not stated),0.16,0.8,Ki [3]: 0.139 µM
CC#Cc1cncc(-c2cccc([C@@]3(C4CC4)NC(=N)N(C)C3=O)c2)c1,0.0054,0.082,Activity [5]: 54%; Activity [6]: 85%; concentration [7]: 4.2 µM; Kp [8]: 0.2; AUC(0-t) at 6 h [4]: 17.9 µM·h; Kp [9]: 0.3
CN1C(=N)NC(c2ccccc2)(c2cccc(-c3ccccc3)c2)C1=O (racemic),3.3,–,–
COc1ccc(-c2cccc(C3(c4ccccc4)NC(=N)N(C)C3=O)c2)cc1 (racemic),3.8,–,–
CCOc1cccc(-c2cccc(C3(c4ccccc4)N=C(N)N(C)C3=O)c2)c1 (racemic),0.46,–,–
CN1C(=N)NC(c2ccccc2)(c2cccc(F)c2)C1=O (racemic),0.72,–,–
Cc1cccc(C2(c3ccccc3)N=C(N)N(C)C2=O)c1 (racemic),0.55,–,–
CN1C(=O)C(c2ccccc2)(c2cccc(C#N)c2)N=C1N (racemic),0.37,–,–
CN1C(=O)C(c2ccccc2)(c2cccc(-c3ccncc3)c2)N=C1N (racemic),3.8,–,–
CN1C(=N)NC(c2ccccc2)(c2cccc(-c3cnccn3)c2)C1=O (racemic),0.31,–,–
Cc1cncc(-c2cccc(C3(c4ccccc4)NC(=N)N(C)C3=O)c2)c1 (racemic),0.43,–,–
CN1C(=N)NC(c2ccccc2)(c2cccc(-c3cncc(C#N)c3)c2)C1=O (racemic),0.47,–,–
CN1C(=N)NC(c2ccccc2)(c2cccc(-c3cncc(F)c3)c2)C1=O (racemic),0.29,–,–
CN1C(=N)NC(c2ccccc2)(c2cccc(-c3cncc(Cl)c3)c2)C1=O (racemic),0.09,–,–
CN1C(=O)C(c2ccccc2)(c2cccc(Cl)c2)N=C1N (racemic),0.3,–,–
